Test results as given in patent US11964980B2, “Crystalline forms of (S)-1-(4-fluorophenyl)-1-(2-(4-(6-(1-methyl-1H-pyrazol-4-yl)pyrrolo[2,1- f][1,2,4]triazin-4-yl)piperazinyl)-pyrimidin-5-yl)ethan-1-amine and methods of making” (Blueprint Medicines Corporation, priority 2019, dated 2024).
Entries after “also recorded” stand apart in the source; their conditions may differ.

Key:
Format in all cases: in vivo, human
[1] = tested on: patients with indolent systemic mastocytosis; experiment: Phase 2 PIONEER trial Part 1: safety
Description: (§1) This is a Phase 2, randomized, double-blind, placebo-controlled study comparing the efficacy and safety of Compound (I)+best supportive care (BSC) with placebo+BSC in patients with ISM and SSM whose symptoms are not adequately controlled by BSC. The study is conducted in three parts. In Part 1, the optimal dose Compound (I) (recommended phase 2 dose (RP2D)) was identified in patients with ISM. In Part 2, patients with ISM and SSM are randomly assigned to the RP2D of Compound (I) identified in Part 1+BSC, or to matching placebo+BSC. In Part 3, patients who have completed treatment in Part 1 or Part 2 of the study participate in a long-term extension, receiving Compound (I) at the RP2D+BSC.
(§2) In Part 1 of the study, approximately 40 patients were randomly assigned to 1 of 3 doses of Compound (I) or to placebo. Each dose-level cohort and placebo group in Part 1 was composed of 10 patients. The 3 dose levels of Compound (I) were tested in parallel: 25, 50, and 100 mg. Patients, study staff, and the Sponsor were blinded to treatment assignment.
(§3) Compound (I) was administered orally, once a day in continuous 28-day cycles. Patients were assessed weekly for the first 4 weeks, then every 4 weeks (until the RP2D was determined) for safety, laboratory monitoring, and quality of life (QoL) assessments. Intensive pharmacokinetic (PK) sampling was performed in all patients. The ISM-SAF was completed once a day. After completion of 12 weeks of treatment, BM and skin biopsy were repeated for MC quantification and skin photographs were taken in patients with baseline CM.
Part 1 of the PIONEER trial was designed to determine the RP2D by evaluating three doses of Compound (I) (25 mg, 50 mg and 100 mg QD) versus placebo. Key eligibility criteria include adults with ISM confirmed by central pathology review of bone marrow biopsy (according to WHO criteria) and moderate-to-severe symptom burden despite best supportive care medicines. Overall, 39 patients were enrolled in Part 1 across four concurrent cohorts, consisting of 10 patients each in the Compound (I) dose cohorts and nine patients in the placebo cohort.

[2] = tested on: patients with indolent systemic mastocytosis; experiment: Phase 2 PIONEER trial Part 1: ISM-SAF symptom scores and MC-QoL
Description: as §1
In Part 1, immediately after informed consent was obtained, management of SM symptoms was optimized, and BSC medication doses and schedules for SM symptom management were stabilized, if needed, over four weeks. Within five days after informed consent is obtained, ISM-SAF (ISM Symptom Assessment Form) data collection begins. The number of anaphylactic episodes treated with epinephrine and all concomitant medications received for any indication were collected from the time of informed consent.
(§4) Once BSC was optimized (between Day −98 and Day −71) and doses were stable for ≥14 days, ISM-SAF data was collected for an additional 14 days to determine eligibility based on symptom severity i.e., to identify ISM and SSM patients having moderate-to-severe symptoms. Patients not meeting the symptom severity threshold were deemed screen failures and were not eligible for study participation. Patients having moderate-to-severe symptoms and meeting the threshold for symptom severity began other screening procedures, including the following: Bone marrow (BM) biopsy (an archival sample obtained within the preceding 24 weeks or a fresh sample) and skin biopsy of lesional and nonlesional skin (in patients with cutaneous mastocytosis (CM)) were performed for confirmation of SM diagnosis and quantification of mast cells (MCs); patients with CM (maculopapular) had skin photographs taken. Additional procedures include: magnetic resonance imaging/computed tomography scan of the brain; bone densitometry; serum tryptase, KIT D816 mutation testing; routine laboratory testing; ECG; and physical examination. All procedures are completed within a 6-week period before the final 14-day collection of baseline ISM-SAF symptoms is initiated.
Once screening procedures were completed, patients had ISM-SAF data collected for another 2 weeks (14 days) to establish baseline scores, after which patients meeting all eligibility requirements were randomly assigned to treatment and began dosing.
as §2, §3
The RP2D was determined based on the efficacy, safety, and PK at each dose level. The primary evaluation of efficacy was the symptom improvement using the ISM-SAF. The primary criterion for selection of the RP2D was the dose of Compound (I) that produces the maximum reduction in total symptom score (TSS), as assessed using the ISM-SAF at Week 12 compared with Baseline (Day −14 to Day −1). […]

[3] = tested on: mast cell burden (serum tryptase, bone marrow mast cells, KIT D816V allele burden); experiment: Phase 2 PIONEER trial Part 1: measures of mast cell burden
Description: as §1
as §4, with “Additional procedures include: magnetic resonance imaging/computed tomography scan of the brain; bone densitometry; serum tryptase, KIT D816 mutation testing; routine laboratory testing; ECG; and physical examination. All procedures are completed within a 6-week period before the final 14-day collection of baseline ISM-SAF symptoms is initiated.” left out
Compound (I) was administered orally, once a day in continuous 28-day cycles. Patients were assessed weekly for the first 4 weeks, then every 4 weeks (until the RP2D was determined) for safety, laboratory monitoring, and quality of life (QoL) assessments. […] After completion of 12 weeks of treatment, BM and skin biopsy were repeated for MC quantification and skin photographs were taken in patients with baseline CM. […]

Compound: Cn1cc(-c2cc3c(N4CCN(c5ncc([C@@](C)(N)c6ccc(F)cc6)cn5)CC4)ncnn3c2)cn1 [Compound (I), (S)-1-(4-fluorophenyl)-1-(2-(4-(6-(1-methyl-1H-pyrazol-4-yl)pyrrolo[2,1-f][1,2,4]triazin-4-yl)piperazin-1-yl)pyrimidin-5-yl)ethan-1-amine]
- Grade of all adverse events reported ([1]; 25 mg QD dose cohort): Grade 1 or 2
- Patients with serious AEs, Grade 3 or higher AEs, or dose modifications ([1]; 25 mg QD dose cohort): No patients
- Grade ≥3 AEs ([1]; 25 mg once daily cohort): No grade ≥3 AEs
- % of subjects with ≥1 AE ([1]; 25 mg, n = 10, any grade): 100%
- AE Bone Pain ([1]; 25 mg, n = 10, any grade): 0%
- AE Diarrhea ([1]; 25 mg, n = 10, any grade): 0%
- AE Dizziness ([1]; 25 mg, n = 10, any grade): 30%
- AE Face edema ([1]; 25 mg, n = 10, any grade): 10%
- AE Fatigue ([1]; 25 mg, n = 10, any grade): 40%
- AE Headache ([1]; 25 mg, n = 10, any grade): 30%
- AE Nausea ([1]; 25 mg, n = 10, any grade): 10%
- AE Periorbital edema ([1]; 25 mg, n = 10, any grade): 0%
- AE Peripheral edema ([1]; 25 mg, n = 10, any grade): 10%
- % of subjects with ≥1 AE ([1]; 25 mg, n = 10, grade 3): 0%
- AE Bone Pain ([1]; 25 mg, n = 10, grade 3): 0%
- AE Diarrhea ([1]; 25 mg, n = 10, grade 3): 0%
- AE Dizziness ([1]; 25 mg, n = 10, grade 3): 0%
- AE Face edema ([1]; 25 mg, n = 10, grade 3): 0%
- AE Fatigue ([1]; 25 mg, n = 10, grade 3): 0%
- AE Headache ([1]; 25 mg, n = 10, grade 3): 0%
- AE Nausea ([1]; 25 mg, n = 10, grade 3): 0%
- AE Periorbital edema ([1]; 25 mg, n = 10, grade 3): 0%
- AE Peripheral edema ([1]; 25 mg, n = 10, grade 3): 0%
- % of subjects with ≥1 AE ([1]; 50 mg, n = 10, any grade): 80%
- AE Bone Pain ([1]; 50 mg, n = 10, any grade): 0%
- AE Diarrhea ([1]; 50 mg, n = 10, any grade): 40%
- AE Dizziness ([1]; 50 mg, n = 10, any grade): 30%
- AE Face edema ([1]; 50 mg, n = 10, any grade): 0%
- AE Fatigue ([1]; 50 mg, n = 10, any grade): 10%
- AE Headache ([1]; 50 mg, n = 10, any grade): 30%
- AE Nausea ([1]; 50 mg, n = 10, any grade): 60%
- AE Periorbital edema ([1]; 50 mg, n = 10, any grade): 20%
- AE Peripheral edema ([1]; 50 mg, n = 10, any grade): 20%
- % of subjects with ≥1 AE ([1]; 50 mg, n = 10, grade 3): 20%
- AE Bone Pain ([1]; 50 mg, n = 10, grade 3): 0%
- AE Diarrhea ([1]; 50 mg, n = 10, grade 3): 10%
- AE Dizziness ([1]; 50 mg, n = 10, grade 3): 0%
- AE Face edema ([1]; 50 mg, n = 10, grade 3): 0%
- AE Fatigue ([1]; 50 mg, n = 10, grade 3): 0%
- AE Headache ([1]; 50 mg, n = 10, grade 3): 10%
- AE Nausea ([1]; 50 mg, n = 10, grade 3): 10%
- AE Periorbital edema ([1]; 50 mg, n = 10, grade 3): 0%
- AE Peripheral edema ([1]; 50 mg, n = 10, grade 3): 0%
- % of subjects with ≥1 AE ([1]; 100 mg, n = 10, any grade): 90%
- AE Bone Pain ([1]; 100 mg, n = 10, any grade): 0%
- AE Diarrhea ([1]; 100 mg, n = 10, any grade): 30%
- AE Dizziness ([1]; 100 mg, n = 10, any grade): 40%
- AE Face edema ([1]; 100 mg, n = 10, any grade): 40%
- AE Fatigue ([1]; 100 mg, n = 10, any grade): 10%
- AE Headache ([1]; 100 mg, n = 10, any grade): 30%
- AE Nausea ([1]; 100 mg, n = 10, any grade): 40%
- AE Periorbital edema ([1]; 100 mg, n = 10, any grade): 30%
- AE Peripheral edema ([1]; 100 mg, n = 10, any grade): 20%
- % of subjects with ≥1 AE ([1]; 100 mg, n = 10, grade 3): 40%
- AE Bone Pain ([1]; 100 mg, n = 10, grade 3): 0%
- AE Diarrhea ([1]; 100 mg, n = 10, grade 3): 10%
- AE Dizziness ([1]; 100 mg, n = 10, grade 3): 0%
- AE Face edema ([1]; 100 mg, n = 10, grade 3): 0%
- AE Fatigue ([1]; 100 mg, n = 10, grade 3): 0%
- AE Headache ([1]; 100 mg, n = 10, grade 3): 10%
- AE Nausea ([1]; 100 mg, n = 10, grade 3): 0%
- AE Periorbital edema ([1]; 100 mg, n = 10, grade 3): 0%
- AE Peripheral edema ([1]; 100 mg, n = 10, grade 3): 0%
- Tolerability ([1]; all doses (25, 50, 100 mg QD)): well-tolerated
- Discontinuation of treatment due to AEs ([1]; all doses, as of data cutoff): no discontinuations for adverse effects; also recorded: no patients discontinued treatment due to AEs
- Mean percent change in ISM-SAF TSS ([2]; 25 mg QD (n = 9), at 16 weeks): −31%
- Mean percent change in ISM-SAF gastrointestinal domain ([2]; 25 mg QD (n = 9), at 16 weeks): −25%
- Mean percent change in ISM-SAF neurological symptoms ([2]; 25 mg QD (n = 9), at 16 weeks): −26%
- Mean percent change in ISM-SAF skin domain ([2]; 25 mg QD (n = 9), at 16 weeks): −37%
- Mean reduction in total MC-QoL score ([2]; 25 mg QD (seven patients), 16 weeks): 34%
- Mean reduction in total symptom score (TSS), ISM-SAF ([2]; 25 mg QD, baseline to 16 weeks): 31%
- Quality of life, MC-QoL overall score and domain scores ([2]; 25 mg QD, week 16): improvements in quality of life; also recorded: improvements in all four domains
- Reduction in ISM-SAF TSS and each symptom in the total domain score ([2]; 25 mg once daily, 16 weeks): statistically significant reduction
- Mean improvement in ISM-SAF TSS ([2]; across all Compound (I) dose cohorts, 16 weeks, p=0.001 vs placebo): approximately 30%
- Blood KIT D816V allele fraction ([3]; 25 mg QD, similar to 50 mg and 100 mg QD): significant reduction
- Serum tryptase, mast cell burden and KIT D816V allele burden ([3]; 25 mg once daily, ISM patients, vs placebo, FIG. 13): significant reductions; also recorded: robust reductions; also recorded: robust declines
- KIT D816V allele burden ([3]; all dose cohorts (25, 50, 100 mg once daily), ISM patients, FIG. 12): significant decreases
